Measurements: patent publication US8633167B2, “Method for the protection of trees” (Syngenta Crop Protection LLC, priority 2006, dated 2014)

How the values were obtained:
Ips engravers beetles = assay: Bolt study (Example 1): Ips attack and gallery construction on loblolly pine bolts cut after trunk injection; format: in vivo; conditions: for reduction of length of egg galleries compared to check trees / reduction of total number of egg galleries compared to check trees: May
Text: The intent of the study was to evaluate the efficacy of systemic injections of emamectin benzoate in reducing success of pine bark beetle attacks on loblolly pine and determine the duration of treatment efficacy. As SPB populations were extremely low in Texas in 2004, Ips engravers beetles were used as indicator species.
Two 20-year-old, recently thinned loblolly pine plantations were selected on land owned by Temple-Inland Forest Products Corporation about 5 km south of Wells (Angelina County), Tex. Trees in one plantation were injected for use in a bolt study (Example 1). Trees in a 0.2 ha section of the second plantation were injected as part of a single-tree protection study (Example 2). A staging area also was set up in the second plantation where bolts from the first plantation were exposed to bark beetles and wood borers.
Seventy-five loblolly pine trees, Pinus taeda L., 15-20 cm diameter at breast height (DBH), were selected in March 2004. Each treatment was injected into four cardinal points about 0.3 m above the ground on each of 15 trees in April (16th-23rd) using the new Arborjet Tree IV™ microinfusion system (Arborjet, Inc. Woburn, Mass.). The treatments included: • 1) Emamectin benzoate (Denim®, 1.92% ai, Syngenta Crop Science)—Denim® was mixed 1:1 with methanol and applied at 18.6 ml solution per inch of tree diameter at breast height (DBH) (=0.2 g active per inch DBH). • 2) Check (untreated)
After 1 (May 24), 3 (July 19) and 5 (September) months post-injection, 5 trees of each treatment were felled and two 1.5 m long bolts were removed from the 3 m and 8 m heights of the bole. The bolts were transported to a nearby plantation that was recently thinned and contained fresh slash material. Each bolt was placed about 1 m apart on discarded, dry pine bolts to maximize surface area available for colonization as well as to discourage predation by ground and litter-inhabiting organisms. To facilitate timely bark beetle colonization, packets of bark beetle pheromones (racemic ipsdienol + lanerione combination, ipsenol or cis-verbenol; Phero Tech, Inc., Delta, BC, Canada) were attached separately to three 1 m stakes evenly spaced in the study area. Racemic ipsdienol and cis-verbenol were used with the second and third series of bolts deployed in July and September, respectively. The packets were removed after 2 weeks when signs of attacks (boring dust) were observed on most test bolts, signaling that naturally-produced pheromones were present.
A clear panel of acetate (10 cm wide by 25 cm long) was attached to the center of each bolt after deployment of bolts to monitor arrival of bark beetles. The top surface of each panel was coated entirely with Stikem Special® trapping compound (Michel and Pelton, Emeryville, Calif.). The traps were left in place for two weeks.
Each series of bolts were retrieved about 3 weeks after deployment, after observing many cerambycid egg niches on the bark surface of most bolts. There was concern that if cerambycid larvae were allowed to develop too long, their feeding activity would obscure or obliterate the Ips galleries. Thus, each series of bolts were retrieved and stored temporarily in a TFS seedling cooler (˜45° F.) to slow cerambycid development until the bolts could be evaluated.
In the laboratory, two 10×50 cm strips (total=1000 cm^2) of bark were removed from each bolt. […]

[1] = test system: pine wood nematode, Bursaphelenchus xylophilis; conditions: cited from earlier work
[2] = 1 Month Post-Injection (May), bolt height 3 m
[3] = 1 Month Post-Injection (May), bolt height 8 m
[4] = 3 Months Post-Injection (July), bolt height 3 m
[5] = 3 Months Post-Injection (July), bolt height 8 m
[6] = 5 Months Post-Injection (September), bolt height 3 m
[7] = 5 Months Post-Injection (September), bolt height 8 m

4″-deoxy-4″-N-methylamino avermectin B1a/B1b [Emamectin]
Length of Egg Galleries Total Length (Ips engravers beetles; [2]): 30.7 a cm | Length of Egg Galleries With Brood % Total (Ips engravers beetles; [2]): 49.5% | Length of Egg Galleries With Brood cm (Ips engravers beetles; [2]): 15.2 a cm | Length of Egg Galleries Without Brood % Total (Ips engravers beetles; [2]): 50.5% | Length of Egg Galleries Without Brood cm (Ips engravers beetles; [2]): 15.5 a cm | Mean # of Ips caught/Trap (Ips engravers beetles; [2]): 3.8 a | Mean # of Nuptial Chambers Without Egg Galleries No. (Ips engravers beetles; [2]): 14.6 c | Mean # of Nuptial Chambers Without Egg Galleries Total (Ips engravers beetles; [2]): 78.5 | Mean # of Nuptial Chambers with Egg Galleries No. (Ips engravers beetles; [2]): 4.0 a | Mean # of Nuptial Chambers with Egg Galleries Total (Ips engravers beetles; [2]): 21.5 | Mean Total # of Nuptial Chambers (Ips engravers beetles; [2]): 18.6 a | Number of Egg Galleries Total Galleries (Ips engravers beetles; [2]): 12.4 a | Number of Egg Galleries With Brood % Total (Ips engravers beetles; [2]): 19.4% | Number of Egg Galleries With Brood No. (Ips engravers beetles; [2]): 2.4 a | Number of Egg Galleries Without Brood % Total (Ips engravers beetles; [2]): 80.6% | Number of Egg Galleries Without Brood No. (Ips engravers beetles; [2]): 10.0 a | Length of Egg Galleries Total Length (Ips engravers beetles; [3]): 13.5 a cm | Length of Egg Galleries With Brood % Total (Ips engravers beetles; [3]): 8.9% | Length of Egg Galleries With Brood cm (Ips engravers beetles; [3]): 1.2 a cm | Length of Egg Galleries Without Brood % Total (Ips engravers beetles; [3]): 91.1% | Length of Egg Galleries Without Brood cm (Ips engravers beetles; [3]): 12.3 a cm | Mean # of Ips caught/Trap (Ips engravers beetles; [3]): 4.8 a | Mean # of Nuptial Chambers Without Egg Galleries No. (Ips engravers beetles; [3]): 9.0 c | Mean # of Nuptial Chambers Without Egg Galleries Total (Ips engravers beetles; [3]): 69.2 | Mean # of Nuptial Chambers with Egg Galleries No. (Ips engravers beetles; [3]): 4.0 a | Mean # of Nuptial Chambers with Egg Galleries Total (Ips engravers beetles; [3]): 30.8 | Mean Total # of Nuptial Chambers (Ips engravers beetles; [3]): 13.0 ab | Number of Egg Galleries Total Galleries (Ips engravers beetles; [3]): 4.2 a | Number of Egg Galleries With Brood % Total (Ips engravers beetles; [3]): 4.8% | Number of Egg Galleries With Brood No. (Ips engravers beetles; [3]): 0.2 a | Number of Egg Galleries Without Brood % Total (Ips engravers beetles; [3]): 95.2% | Number of Egg Galleries Without Brood No. (Ips engravers beetles; [3]): 4.0 a | Length of Egg Galleries Total Length (Ips engravers beetles; [4]): 0.0 a cm | Length of Egg Galleries With Brood cm (Ips engravers beetles; [4]): 0.0 a cm | Length of Egg Galleries Without Brood cm (Ips engravers beetles; [4]): 0.0 a cm | Mean # of Ips caught/Trap (Ips engravers beetles; [4]): 1.8 a | Mean # of Nuptial Chambers Without Egg Galleries No. (Ips engravers beetles; [4]): 11.0 b | Mean # of Nuptial Chambers Without Egg Galleries Total (Ips engravers beetles; [4]): 100.0 | Mean # of Nuptial Chambers with Egg Galleries No. (Ips engravers beetles; [4]): 0.0 a | Mean # of Nuptial Chambers with Egg Galleries Total (Ips engravers beetles; [4]): 0.0 | Mean Total # of Nuptial Chambers (Ips engravers beetles; [4]): 11.0 ab | Number of Egg Galleries Total Galleries (Ips engravers beetles; [4]): 0.0 a | Number of Egg Galleries With Brood No. (Ips engravers beetles; [4]): 0.0 a | Number of Egg Galleries Without Brood No. (Ips engravers beetles; [4]): 0.0 a | Length of Egg Galleries Total Length (Ips engravers beetles; [5]): 0.0 a cm | Length of Egg Galleries With Brood cm (Ips engravers beetles; [5]): 0.0 a cm | Length of Egg Galleries Without Brood cm (Ips engravers beetles; [5]): 0.0 a cm | Mean # of Ips caught/Trap (Ips engravers beetles; [5]): 3.4 a | Mean # of Nuptial Chambers Without Egg Galleries No. (Ips engravers beetles; [5]): 8.4 c | Mean # of Nuptial Chambers Without Egg Galleries Total (Ips engravers beetles; [5]): 100.0 | Mean # of Nuptial Chambers with Egg Galleries No. (Ips engravers beetles; [5]): 0.0 a | Mean # of Nuptial Chambers with Egg Galleries Total (Ips engravers beetles; [5]): 0.0 | Mean Total # of Nuptial Chambers (Ips engravers beetles; [5]): 8.4 b | Number of Egg Galleries Total Galleries (Ips engravers beetles; [5]): 0.0 a | Number of Egg Galleries With Brood No. (Ips engravers beetles; [5]): 0.0 a | Number of Egg Galleries Without Brood No. (Ips engravers beetles; [5]): 0.0 a | Length of Egg Galleries Total Length (Ips engravers beetles; [6]): 0.0 a cm | Length of Egg Galleries With Brood cm (Ips engravers beetles; [6]): 0.0 a cm | Length of Egg Galleries Without Brood cm (Ips engravers beetles; [6]): 0.0 a cm | Mean # of Ips caught/Trap (Ips engravers beetles; [6]): 1.2 a | Mean # of Nuptial Chambers Without Egg Galleries No. (Ips engravers beetles; [6]): 3.8 b | Mean # of Nuptial Chambers Without Egg Galleries Total (Ips engravers beetles; [6]): 100.0 | Mean # of Nuptial Chambers with Egg Galleries No. (Ips engravers beetles; [6]): 0.0 a | Mean # of Nuptial Chambers with Egg Galleries Total (Ips engravers beetles; [6]): 0.0 | Mean Total # of Nuptial Chambers (Ips engravers beetles; [6]): 3.8 a | Number of Egg Galleries Total Galleries (Ips engravers beetles; [6]): 0.0 a | Number of Egg Galleries With Brood No. (Ips engravers beetles; [6]): 0.0 a | Number of Egg Galleries Without Brood No. (Ips engravers beetles; [6]): 0.0 a | Length of Egg Galleries Total Length (Ips engravers beetles; [7]): 0.0 a cm | Length of Egg Galleries With Brood cm (Ips engravers beetles; [7]): 0.0 a cm | Length of Egg Galleries Without Brood cm (Ips engravers beetles; [7]): 0.0 a cm | Mean # of Ips caught/Trap (Ips engravers beetles; [7]): 0.4 a | Mean # of Nuptial Chambers Without Egg Galleries No. (Ips engravers beetles; [7]): 4.4 b | Mean # of Nuptial Chambers Without Egg Galleries Total (Ips engravers beetles; [7]): 100.0 | Mean # of Nuptial Chambers with Egg Galleries No. (Ips engravers beetles; [7]): 0.0 a | Mean # of Nuptial Chambers with Egg Galleries Total (Ips engravers beetles; [7]): 0.0 | Mean Total # of Nuptial Chambers (Ips engravers beetles; [7]): 4.4 a | Number of Egg Galleries Total Galleries (Ips engravers beetles; [7]): 0.0 a | Number of Egg Galleries With Brood No. (Ips engravers beetles; [7]): 0.0 a | Number of Egg Galleries Without Brood No. (Ips engravers beetles; [7]): 0.0 a | construction of egg galleries (Ips engravers beetles; July and September, all bolts): completely prevented | attacks unsuccessful (Ips engravers beetles; July and September, both heights): 100% | reduction of length of egg galleries compared to check trees (Ips engravers beetles; 3 m): 94% | reduction of total number of egg galleries compared to check trees (Ips engravers beetles; 3 m): 81% | reduction of length of egg galleries compared to check trees (Ips engravers beetles; 8 m): 99% | reduction of total number of egg galleries compared to check trees (Ips engravers beetles; 8 m): 96% | attacks unsuccessful (Ips engravers beetles; bolts evaluated in May, 3 m height): 79% | attacks unsuccessful (Ips engravers beetles; bolts evaluated in May, 8 m height): 69% | preventing successful attacks by Ips bark beetles and cerambycids (Ips engravers beetles; both examples, one, three and five months after injection): highly effective | duration of protection ([1]; pine, against pine wood nematode and coneworm): more than three years | efficacy against pine wood nematode ([1]; systemic activity in pine): highly effective
